Measurements from the supplement of paper PMC10307832.

What was measured:
Assay in all cases: relative viability (nuclei count vs DMSO), 5 days (fraction); higher = more cells survive
EHT 1864 + Bortezomib = compound: C1COCCN1CC2=CC(=O)C(=CO2)OCCCCCSC3=C4C=CC(=CC4=NC=C3)C(F)(F)F [EHT 1864] + CC(C)C[C@H](NC(=O)[C@H](Cc1ccccc1)NC(=O)c1cnccn1)B(O)O [Bortezomib] (partner 0.002 µM)
Method in brief: (§1)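 Medians of duplicate plates are given as relative viability. That measure is the nuclei count in treated wells divided by the count in vehicle wells. Counts were taken on 4× images of lung cancer cell lines in 1536-well plates, 5 days after pin-tool dosing the day after seeding with one drug alone or a fixed anchor-drug dose plus five library-drug doses (not always all listed) in √10 steps.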

EHT 1864 + Alpelisib = compound: C1COCCN1CC2=CC(=O)C(=CO2)OCCCCCSC3=C4C=CC(=CC4=NC=C3)C(F)(F)F [EHT 1864] + Cc1nc(NC(=O)N2CCC[C@H]2C(N)=O)sc1-c1ccnc(C(C)(C)C(F)(F)F)c1 [Alpelisib] (partner 2 µM)
Method in brief: as §1

EHT 1864 + Pemetrexed = compound: C1COCCN1CC2=CC(=O)C(=CO2)OCCCCCSC3=C4C=CC(=CC4=NC=C3)C(F)(F)F [EHT 1864] + Nc1nc2[nH]cc(CCc3ccc(C(=O)N[C@@H](CCC(=O)O)C(=O)O)cc3)c2c(=O)[nH]1 [Pemetrexed] (partner 0.2 µM)
Method in brief: as §1

EHT 1864 + Olaparib = compound: C1COCCN1CC2=CC(=O)C(=CO2)OCCCCCSC3=C4C=CC(=CC4=NC=C3)C(F)(F)F [EHT 1864] + O=C(c1cc(Cc2n[nH]c(=O)c3ccccc23)ccc1F)N1CCN(C(=O)C2CC2)CC1 [Olaparib] (partner 8 µM)
Method in brief: as §1

Cell Line	relative viability (EHT 1864 + Bortezomib; first compound 0.04 µM)	relative viability (EHT 1864 + Bortezomib; first compound 0.1265 µM)	relative viability (EHT 1864 + Bortezomib; first compound 0.4 µM)	relative viability (EHT 1864 + Bortezomib; first compound 1.265 µM)	relative viability (EHT 1864 + Bortezomib; first compound 4 µM)	relative viability (EHT 1864 + Alpelisib; first compound 0.04 µM)	relative viability (EHT 1864 + Alpelisib; first compound 0.4 µM)	relative viability (EHT 1864 + Alpelisib; first compound 1.265 µM)	relative viability (EHT 1864 + Alpelisib; first compound 4 µM)	relative viability (EHT 1864 + Pemetrexed; first compound 0.04 µM)	relative viability (EHT 1864 + Pemetrexed; first compound 0.1265 µM)	relative viability (EHT 1864 + Pemetrexed; first compound 0.4 µM)	relative viability (EHT 1864 + Pemetrexed; first compound 1.265 µM)	relative viability (EHT 1864 + Pemetrexed; first compound 4 µM)	relative viability (EHT 1864 + Olaparib; first compound 0.04 µM)	relative viability (EHT 1864 + Olaparib; first compound 0.1265 µM)	relative viability (EHT 1864 + Olaparib; first compound 0.4 µM)	relative viability (EHT 1864 + Olaparib; first compound 1.265 µM)	relative viability (EHT 1864 + Olaparib; first compound 4 µM)	relative viability (EHT 1864 + Alpelisib; first compound 0.1265 µM)
LCLC-97TM1	0.754	0.53	0.75	0.401	0.7	0.253	0.22	0.195	0.198	0.205	0.15	0.169	0.185	0.15	0.347	0.346	0.328	0.326	0.444	
LCLC-103H	1.18	1.01	1.14	1.06	1.02	1.05	0.956	1.03	1.07	0.431	0.45	0.506	0.468	0.5	0.742	0.694	0.739	0.718	0.734	0.888
LOU-NH91	0.566	0.514	0.492	0.498	0.498	0.739	0.793	0.736	0.624	0.347	0.382	0.396	0.421	0.391	0.917	0.858	0.911	0.949	0.885	0.7
LU99A	1.06	0.672	1.06	1.25	1.13	0.495	0.452	0.583	0.54	0.196	0.178	0.179	0.186	0.19	0.26	0.262	0.25	0.284	0.274	0.381
LXF-289	1.02	0.92	0.929	0.973	0.872	1.1	1	0.968	0.912	0.857	0.894	0.835	0.769	0.843	1.12	0.963	1.02	0.953	0.97	1
NCI-H23	0.879		0.84	0.995	0.924	0.664	0.781	0.738	0.807	0.715	0.549	0.632	0.671	0.748	0.295	0.271	0.284	0.296	0.32	
NCI-H322M	1.22	1.2	1.23	1.27	1.25	0.763	0.821	0.81	0.959	0.606	0.64	0.596	0.678	0.604	0.704	0.822	0.811	0.782	0.879	0.747
NCI-H441	0.381	0.372	0.505	0.447	0.285	0.73	0.532	0.779	0.729	0.28		0.286	0.241	0.255	0.562		0.503	0.477	0.617	0.644
NCI-H460	1.01	1.1	0.993	0.994	0.905	0.427	0.475	0.444	0.486		0.0604	0.0667	0.0607	0.0677	0.461	0.387	0.389	0.363	0.351	0.57
NCI-H520	0.685	0.339	0.629	0.773	0.323	0.967	0.883	0.889	0.876	0.67	0.588	0.758	0.627	0.604	0.271	0.318	0.354	0.419	0.351	0.954
NCI-H596	0.836	0.637	0.976	1.01	1.05	0.524	0.506	0.434	0.514	0.554	0.513	0.447	0.575	0.468	0.773	0.719	0.8	0.781	0.777	0.529
NCI-H647	0.808	0.753	0.954	0.934	1.04	1.21	1.26	0.977	1.18	0.203	0.13	0.164	0.157	0.177	0.493	0.503	0.539	0.312	0.613	1.04
NCI-H650	0.911		0.862	0.827	0.914	1.05	1.23	1.02	1.09	0.975	0.75	0.968	0.947	0.927	0.425	0.386	0.383	0.39	0.413	
